The test system of this test is patients with chronic diarrhoea caused by Crohn's disease or ulcerative colitis. Nature of the test: open-label pilot trial in patients with chronic diarrhoea caused by Crohn's disease or ulcerative colitis. It counts as in vivo. From the text:
Three patients with chronic diarrhoea caused by Crohn's disease without resection, aged 44 to 63 years (2 female) and three patients with chronic diarrhoea caused by ulcerative colitis, aged 50 to 65 years (1 female) were enrolled in an open-label pilot trial to receive twice a day the composition as per the Example 4 for 12 weeks.

Setting [1] is: composition as per Example 4 twice a day for 12 weeks, 3 Crohn's disease and 3 ulcerative colitis patients.

Non-standard residues stand in square brackets, D forms with d. Residues, ends and D or L forms follow the SMILES beside them. pGlu = O=C1CC[C@@H](C(=O)O)N1; Thz = O=C(O)[C@@H]1CSCN1

Consider `O=C1CC[C@@H](C(=O)N2CSC[C@H]2C(=O)O)N1` [pidotimod, (4R)-3-(5-oxo-L-prolyl)-1,3-thiazolidine-4-carboxylic acid] ([pGlu]-[Thz]-OH), for which, for the setting “administered twice daily for 12 weeks, study conclusion”, the “role in inflammatory bowel disease (IBD) in controlling signs and symptoms such as chronic diarrhea” value is recorded as “beneficial role”. Further, the frequency of stools result (composition as per Example 4 (oral solution, 5.10% pidotimod) twice a day for 12 weeks, 3 Crohn's disease and 3 ulcerative colitis patients) is “significantly decreased”. Under setting [1], the bowel transit time entry was “prolonged”, the stool consistency result was “became more solid” and the weight of stools entry was “significantly decreased”.

The record behind these values is patent publication US20160058739A1, “USE OF PIDOTIMOD TO TREAT INFLAMMATORY BOWEL DISEASE” (POLICHEM SA, priority 2013, published 2016).
